Measurements published in patent US10993935B2, “Compositions and methods for treatment of lung infections” (priority 2018, dated 2021).

Experiments:
[1] = test system: P. aeruginosa strains; experiment: MIC and synergy testing (checkerboard/isobologram) of RFX and TOB; assay type: cell-based, Pseudomonas aeruginosa; settings: for MIC TOB: TOB alone; for MIC TOB in Combination: in combination with RFX; for MIC RFX: RFX alone; for MIC RFX in Combination: in combination with TOB
Description: Minimum Inhibitory Concentration Testing. MIC testing was performed as previously described. Briefly, overnight culture of bacteria was diluted in 1:100 of a 0.5 McFarland standard as inoculum. The same number of cells was grown in LB broth containing serial, two-fold dilutions of rifaximin (RFX) or tobramycin (TOB). Growth was measured via optical density (OD) at 600 nm after 24 h incubation at 37° C. Concentrations of antibiotic required for inhibition of 50% and 90% of strains were determined.
Synergy Testing. Synergistic potential of RFX and TOB was performed by isobologram (checkerboard) analysis in 96-well plate format Briefly, PIB containing serial dilutions of each drug were plated in 64 wells of a 96-well plate with one drug vertically plated and the other horizontally plated. Bacterial cells of P. aeruginosa were grown 4 to 6 hours to an early log phase and then added to the wells of the plate. Growth in the wells was measured via OD at 600 nm after 24 h incubation at 37° C. The MIC and Fractional Inhibition Concentration (FIC) were calculated to determine synergism, antagonism or additivity between the tested strains of P. aeruginosa: PAO1, PAO581, PAO581 isogenic mutant, CF001, and CF010. The summative ΣFTC was calculated from the FICs and interpreted according to the standard index values: synergy ≤0.5; indifferent 0.5< to ≤4; antagonism >4. […]

[2] = test system: P. aeruginosa; experiment: Uronic acid carbazole assay of alginate production; assay type: cell-based, Pseudomonas aeruginosa
Description: Data shown represent means of 5 replicates per group ±standard error (SE). Two-way ANOVA analysis was used with statistical significance set as a P value of <0.01 (****, P<0.0001; **, P<0.001; *, P<0.01).
Uronic Acid Carbazole Assay. Alginate production was measured via carbazole assay. Laboratory and clinical isolate strains were grown in PIB from a single colony isolation. The strains were then plated on 150 mm agar plates containing no antibiotic; RFX at concentrations of 10 μM (MIC50), 6 μM (MIC30), 2 μM (MIC10), and 0.2 μM (MIC1); or TOB at concentrations of 2 μM (MIC50), 1.2 μM (MIC30), 0.4 μM (MIC10), and 0.04 μM (MIC1) and incubated at 37° C. for 48 h. Sterile PBS (30 mL) was added to the plates and the cells plus their mucoid film were collected into 50 mL conical tubes. A 1 mL sample was taken to measure growth via OD at 600 nm. A 700 μL sample was then added to tubes containing 6 mL of a sulfuric acid-borate solution. A 200 μL aliquot of 0.1% carbazole was then added to the tubes and incubated for 30 m at 55° C. The alginate was then measured via OD at 530 nm and plotted against a standard curve made with D-mannuronic acid (Sigma-Aldrich). The reported values represent an average from three independent alginate collections with standard deviation.
To investigate the extent of this inhibition, PAO1, PAO581, and two mucoid P. aeruginosa CF isolates (CF001 and CF010) were grew on PIA plates containing sub-MIC concentrations of either TOB or RFX and measured alginate production with the carbazole assay. […] The MIC normalization was used to compare the effect of the two drugs on inhibition of alginate production, as this allowed the measurement of alginate made by the same number of bacterial cells.

[3] = test system: P. aeruginosa PAO1; experiment: Murine pneumonia model, single-dose treatment, survival; assay type: in vivo, DBA/2 mice; settings: 12 mice per group
Description: Kaplan-Meier curves showing percent survival of DBA/2 mice with P. aeruginosa PAO1 infection after treatment with RFX or TOB at 0 h post-infection (FIG. 5A), 6 h post-infection (FIG. 5B), and 12 h post-infection (FIG. 5C). Data shown represent means of 12 mice per group. The Mantel-Cox test was used with significance set at a P value of <0.01 and showing standard error (SE) bars.
Murine Pneumonia Model Treatment. TOB or RFX were used to treat P. aeruginosa respiratory infection in a DBA/2 mouse model established previously. Lung infection was induced by a single exposure to a total of 84 male DBA/2 mice of 8 week old (Charles River Laboratories) to P. aeruginosa PAO1 aerosols, which was prepared as previously reported. Immediately after infection, the mice were separated into seven groups (n=12 per group): 1) control with no treatment, 2) treatment with 300 mg TOB immediately after infection, 3) treatment with 300 mg RFX immediately after infection, 4) treatment with 300 mg TOB 6 h after infection, 5) treatment with 300 mg RFX 6 h after infection, 6) treatment with 300 mg TOB 12 h after infection, or 7) treatment with 300 mg RFX 12 h after infection. Each experimental group was treated with TOB or RFX with a control group treated with PBS following the nebulization protocol as described above. The mice were monitored for survival at 12 hour intervals for 72 hours and then at 24 hour intervals for 6 weeks.
After establishing the dosing of TOB or RFX to efficiently reach the lungs, the efficacy of both drugs against P. aeruginosa lung infections was compared using an established mouse model. DBA/2 (n=84) male mice were first infected with aerosolized P. aeruginosa PAO1 in a whole-body exposure chamber as previously described. The mice were then separated into four groups. One group was left untreated to determine the rate of mortality (control). The remaining three groups were treated with RFX or TOB using a pressure-based nebulizer and whole-body exposure chamber at a concentration of 300 mg at 0 h, 6 h, or 12 h post infection. All control mice died within 5 days (FIGS. 5A-5C), consistent with what was previously reported. […] In the 12 h treatment group, 83% of mice treated with RFX survived, while only 50% of mice treated with TOB survived (FIG. 5C).

[4] = non-mucoid strain PAO1, sub-MIC concentrations (MIC1-MIC50) on PIA, TOB versus RFX
[5] = 300 mg nebulized at 0 h after infection
[6] = 300 mg nebulized at 6 h post infection
[7] = 300 mg nebulized at 12 h post infection

Structure (SMILES): NC[C@H]1O[C@H](O[C@H]2[C@H](O)[C@@H](O[C@H]3O[C@H](CO)[C@@H](O)[C@H](N)[C@H]3O)[C@H](N)C[C@@H]2N)[C@H](N)C[C@@H]1O [TOB, tobramycin]
- FIC TOB ([1]; strain CF001, M): 0.25
- MIC TOB ([1]; strain CF001, M): 2
- MIC TOB in Combination ([1]; strain CF001, M): 0.5
- MIC TOB ([1]; strain CF003, NM): 2
- MIC TOB in Combination ([1]; strain CF003, NM): 0.25
- FIC TOB ([1]; strain CF010, M): 0.25
- MIC TOB ([1]; strain CF010, M): 2
- MIC TOB in Combination ([1]; strain CF010, M): 0.5
- FIC TOB ([1]; strain PAO1, NM): 0.125
- MIC TOB ([1]; strain PAO1, NM): 2
- MIC TOB in Combination ([1]; strain PAO1, NM): 0.25
- FIC TOB ([1]; strain PAO581, M): 0.25
- MIC TOB ([1]; strain PAO581, M): 2
- MIC TOB in Combination ([1]; strain PAO581, M): 0.5
- FIC TOB ([1]; strain PAO581 NM revertant): 0.25
- MIC TOB ([1]; strain PAO581 NM revertant): 2
- MIC TOB in Combination ([1]; strain PAO581 NM revertant): 0.5
- alginate production [2, 4]: no significant difference in alginate production
- survival [3, 5]: 92%
- survival [3, 6]: 58%
- survival [3, 7]: 50%

Structure (SMILES): CO[C@H]1/C=C/O[C@@]2(C)Oc3c(C)c(O)c4c(O)c(c5c(nc6cc(C)ccn65)c4c3C2=O)NC(=O)/C(C)=C\C=C\[C@H](C)[C@H](O)[C@@H](C)[C@@H](O)[C@@H](C)[C@H](OC(C)=O)[C@@H]1C [RFX, rifaximin]
- FIC RFX ([1]; strain CF001, M): 0.25
- MIC RFX ([1]; strain CF001, M): 16
- MIC RFX in Combination ([1]; strain CF001, M): 4
- MIC RFX ([1]; strain CF003, NM): 4
- FIC RFX ([1]; strain CF010, M): 0.25
- MIC RFX ([1]; strain CF010, M): 8
- MIC RFX in Combination ([1]; strain CF010, M): 2
- FIC RFX ([1]; strain PAO1, NM): 0.25
- MIC RFX ([1]; strain PAO1, NM (non-mucoid)): 16
- MIC RFX in Combination ([1]; strain PAO1, NM): 4
- FIC RFX ([1]; strain PAO581, M): 0.25
- MIC RFX ([1]; strain PAO581, M (mucoid)): 16
- MIC RFX in Combination ([1]; strain PAO581, M): 4
- FIC RFX ([1]; strain PAO581 NM revertant): 0.25
- MIC RFX ([1]; strain PAO581 NM revertant): 16
- MIC RFX in Combination ([1]; strain PAO581 NM revertant): 4
- alginate production ([2]; mucoid CF isolates CF001 and CF010, compared to TOB): significant decrease in alginate production
- alginate production ([2]; mucoid strain PAO581, all concentrations tested, compared to TOB): significantly decreased alginate production
- alginate production [2, 4]: no significant difference in alginate production
- survival [3, 5]: 100%
- survival [3, 6]: 92%
- survival [3, 7]: 83%
